Measured values published in PMC7307906, “Macrocyclic Modalities Combining Peptide Epitopes and Natural Product Fragments” (Journal of the American Chemical Society, 2020).

How the values were obtained:
human MC4R [1] = molecular target: T1, human MC4R (Homo sapiens, UniProt P32245); test: cAMP assay (LANCE) in T-Rex-293 cells expressing MC4R; assay type: cell-based; details: cAMP assay; mean (± SEM) of at least three independent experiments; read-out: EC50 hMC4R cAMP
T1 construct: expressed in transfected cells

hMC1−5R = test: Melanocortin receptor cAMP assay, result stated for all receptors together; assay type: cell-based, human; details: one bound printed for all receptors
From the text: Example concentration response curves for selected PepNats in MC1R, MC3R, MC4R, MC5R radioligand binding assays and MC1R, MC3R, MC4R cAMP assays. Responses were normalized to reference agonist NDP -α-MSH and presented as % effect of control, with full competition in binding defined as -100% and full agonism in cAMP assays defined as […]
binding assay. Threshold to define a compound as active was set to -30% in binding assays and 20% in cAMP assays respectively. Data are from at least three independent experiments and error bars represent ± Standard Error of the […]
% s p e c ific b in d in g o f
(1 picture or pasted object on this page, not shown here) […]
to the elution profile of the crude product . The relevant fractions containing the desired product were collected, analyzed by RP-HPLC-MS and accordingly pooled and lyophilized.
HRMS were obtained on a Thermo Scientific LTQ Fleet Orbitrap mass spectrometer coupled to an Accela HPLC-System (HPLC column: Hypersyl GOLD, 50 mm x 1 mm, particle size 1.9 μm) equipped with an electron spray ionization source (ESI). The mass detection was recorded in the range of […]
2) B) Biochemical Assays Materials and Methods
Surface Plasmon Resonance (SPR)
All SPR experiments were conducted on a Biacore T200, S200 or 8K instrument (GE Healthcare) at 20 °C using HBS-P+ as running buffer (GE Healthcare). […]

human MC4R [2] = molecular target: T1, human MC4R; test: Melanocortin receptor radioligand binding (SPA, [125I]-NDP-α-MSH displacement), MC4R; details: competitive binding, mean (± SEM) of at least three independent experiments, read-out: IC50 hMC4R binding

T1 sequence (P32245 whole entry): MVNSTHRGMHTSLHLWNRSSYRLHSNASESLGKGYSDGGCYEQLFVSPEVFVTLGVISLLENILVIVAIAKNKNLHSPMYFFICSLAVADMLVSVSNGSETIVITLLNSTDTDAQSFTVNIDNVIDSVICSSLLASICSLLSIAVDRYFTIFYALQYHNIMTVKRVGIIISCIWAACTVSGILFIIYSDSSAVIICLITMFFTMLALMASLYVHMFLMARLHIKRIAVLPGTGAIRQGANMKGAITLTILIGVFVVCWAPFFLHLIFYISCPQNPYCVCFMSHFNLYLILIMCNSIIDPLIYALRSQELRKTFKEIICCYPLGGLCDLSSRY

EC50 (human MC4R [1]): > 100 µM
EC50 (hMC1−5R): > 100 µM
IC50 (human MC4R [2]): > 100 µM
Structure (SMILES): CN1C(=O)[C@H]2N[C@@H](c3ccc(cc3)C(=O)NCCCC[C@@H](C(=O)N[C@@H](Cc3ccc(O)cc3)C(N)=O)NC(=O)[C@H](CC(N)=O)NC(=O)[C@@H](Cc3ccccc3)NC(=O)[C@@H](Cc3ccccc3)NC(=O)[C@H](CCCNC(=N)N)NC(=O)[C@@H]1Cc1ccccc1)[C@H]1C(=O)N(c3ccccc3)C(=O)[C@H]12 [K1-minor, [II-FRffNK ]Y]
